From PMC12543283, “TastepepAI: An artificial intelligence platform for taste peptide de novo design” (PLOS Computational Biology, 2025)
Values joined by “and” are separate entries in the source; they are usually repeats but may differ in a detail not shown here. Equal entries are not always repeated. Ends that are not written are not given here.

What was measured:
[1] = Electronic tongue analysis (Taste-Sensing System SA 402B); set-up: unit not given here; conditions: reference solution 30 mM KCl + 0.3 mM tartaric acid as baseline, first measurement excluded; for Umami: sensor AAE; for Umami / Bitter / Sweet: detection threshold 0, room temperature; for Umami / Bitter / Sour / Salty: four replicates; for Sour: detection threshold -13, room temperature; for Salty: detection threshold -6, room temperature; for Sweet: measured five times
Procedure, shortened: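 Samples were tested at 0.1 and 1.0 mg/mL on an SA 402B e-tongue fitted with sourness, saltiness, bitterness, sweetness and umami sensors, with 30 mM KCl/0.3 mM tartaric acid as reference and baseline. Thresholds were −13 for sour, −6 for salty and 0 for the rest. Runs at room temperature: four replicates, five for sweetness, first reading discarded.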

[2] = system: human bronchial epithelial cells (BEAS-2B)
Description: The cytotoxicity of 73 synthetic peptides was evaluated using four human cell lines: human pancreatic ductal epithelial cells (HPNE), human embryonic kidney cells (HEK293T), human umbilical vein endothelial cells (HUVEC), and human bronchial epithelial cells (BEAS-2B). When cell density reached 70% confluence, the complete culture medium was replaced with serum-free maintenance medium, and peptides were added at a final concentration of 100 μM for 36 h. Control groups received only serum-free maintenance medium without peptides. Cell proliferation was assessed using the CCK-8 assay kit (Solarbio, CA1210) according to the manufacturer’s instructions.

[3] = system: human embryonic kidney cells (HEK293T)
[4] = system: human pancreatic ductal epithelial cells (HPNE)
[5] = system: human umbilical vein endothelial cells (HUVEC)

Substance	Umami ([1]; peptide 0.1 mg/mL)	Umami ([1]; peptide 1 mg/mL)	Bitter ([1]; sensor C00, peptide 0.1 mg/mL)	Bitter ([1]; sensor C00, peptide 1 mg/mL)	Sour ([1]; sensor CA0, peptide 0.1 mg/mL)	Sour ([1]; sensor CA0, peptide 1 mg/mL)	Salty ([1]; sensor CT0, peptide 0.1 mg/mL)	Salty ([1]; sensor CT0, peptide 1 mg/mL)	Sweet ([1]; sensor GL1, peptide 0.1 mg/mL)	Sweet ([1]; sensor GL1, peptide 1 mg/mL)	Average cell viability, BEAS-2B [2]	Cell viability, BEAS-2B, Data1 [2]	Cell viability, BEAS-2B, Data2 [2]	Cell viability, BEAS-2B, Data3 [2]	Average cell viability, HEK293T [3]	Cell viability, HEK293T, Data1 [3]	Cell viability, HEK293T, Data2 [3]	Cell viability, HEK293T, Data3 [3]	Average cell viability, HPNE [4]	Cell viability, HPNE, Data1 [4]	further results
EFPEQN [TaPep17]	1.17	-5.94	7.25	3.52	-2.22	14.54	-21.65	-0.53	5.23	-5.15	109.94	112.36	107.58	109.87	98.68	94.45	102.97	98.61	92.31	86.66	Cell viability, HPNE, Data2 [4]: 92.25; Cell viability, HPNE, Data3 [4]: 98.04; Average cell viability, HUVEC [5]: 96.70; Cell viability, HUVEC, Data1 [5]: 94.76; Cell viability, HUVEC, Data2 [5]: 94.12; Cell viability, HUVEC, Data3 [5]: 101.22
SEGIQ [TaPep70]	1.63	-4.00	7.38	3.77	-3.33	10.04	-20.29	7.83	6.55	-3.62	104.32	109.87	102.79	100.30	99.37	100.88	96.25	100.98	105.19	112.61	Cell viability, HPNE, Data2 [4]: 102.83; Cell viability, HPNE, Data3 [4]: 100.13; Average cell viability, HUVEC [5]: 107.56; Cell viability, HUVEC, Data1 [5]: 113.68; Cell viability, HUVEC, Data2 [5]: 110.32; Cell viability, HUVEC, Data3 [5]: 98.67
PTELESD [TaPep41]	1.88	-3.94	7.34	3.91	-3.84	9.16	-20.79	2.54	8.41	-8.94	110.80	117.85	114.36	100.20	106.18	94.54	110.54	113.47	95.94	86.16	Cell viability, HPNE, Data2 [4]: 113.91; Cell viability, HPNE, Data3 [4]: 87.75; Average cell viability, HUVEC [5]: 103.09; Cell viability, HUVEC, Data1 [5]: 108.17; Cell viability, HUVEC, Data2 [5]: 102.98; Cell viability, HUVEC, Data3 [5]: 98.11
SLEYLP [TaPep35]	1.93	-4.82	7.64	2.77	-3.84	12.93	-20.10	10.87	8.65	-7.23	109.54	106.58	102.99	119.04	98.64	104.29	94.35	97.29	109.88	105.12	Cell viability, HPNE, Data2 [4]: 118.20; Cell viability, HPNE, Data3 [4]: 106.32; Average cell viability, HUVEC [5]: 100.35; Cell viability, HUVEC, Data1 [5]: 100.75; Cell viability, HUVEC, Data2 [5]: 100.03; Cell viability, HUVEC, Data3 [5]: 100.27
YAGNAP [TaPep10]	3.61	-3.37	6.97	bitterness suppression and -0.80	-8.60	8.97	-20.44	14.02	11.07	-4.53	98.84	101.69	95.01	99.80	99.40	94.83	102.87	100.50	95.54	97.18	Cell viability, HPNE, Data2 [4]: 94.47; Cell viability, HPNE, Data3 [4]: 94.97; Average cell viability, HUVEC [5]: 102.47; Cell viability, HUVEC, Data1 [5]: 99.31; Cell viability, HUVEC, Data2 [5]: 104.50; Cell viability, HUVEC, Data3 [5]: 103.62
AKDEKEL [TaPep1]	2.15	-3.64	10.96	3.53	-4.53	9.07	-19.14	13.72	6.22	-3.13	108.54	105.88	114.46	105.28	101.23	110.16	98.99	94.54	94.74	92.35	Cell viability, HPNE, Data2 [4]: 92.15; Cell viability, HPNE, Data3 [4]: 99.73; Average cell viability, HUVEC [5]: 97.71; Cell viability, HUVEC, Data1 [5]: 96.99; Cell viability, HUVEC, Data2 [5]: 94.60; Cell viability, HUVEC, Data3 [5]: 101.54
LQPSLEH [TaPep59]	1.85	-6.02	7.83	1.90	-3.89	15.44	-19.53	15.85	6.34	-7.32	100.60	96.61	109.87	95.31	98.64	100.88	99.94	95.11	92.71	105.62	Cell viability, HPNE, Data2 [4]: 84.46; Cell viability, HPNE, Data3 [4]: 88.05; Average cell viability, HUVEC [5]: 104.79; Cell viability, HUVEC, Data1 [5]: 97.39; Cell viability, HUVEC, Data2 [5]: 106.49; Cell viability, HUVEC, Data3 [5]: 110.48
